A short description of one series: physchem. The conditions noted are these: PBS, pH 7.4.
Series [1] deals with Mus musculus. Put plainly: Induction of insulin-induced hypoglycemia in C57BL/6 obese mouse model at 25 mg/kg administered daily via oral gavage measured post 4 weeks of treatment by insulin tolerance test. Type of series: functional, organism-based.
The test system of series [2] is Mus musculus. Briefly: Antidiabetic activity in C57BL/6 obese mouse model assessed as reduction in blood glucose level at 25 mg/kg administered daily via oral gavage measured post 3 weeks of treatment by glucose tolerance test. It is filed as functional, organism-based.
The subject of series [3] is Mus musculus. Put plainly: Increase in serum IL6 levels in C57BL/6 obese mouse model at 25 mg/kg administered via oral gavage measured 6 hrs post treatment by ELISA. Type of series: functional, organism-based. Background: ELISA stands for enzyme-linked immunosorbent assay.
Series [4] relates to Mus musculus. Briefly: Antiobesity activity in C57BL/6 obese mouse model assessed as body weight loss at 25 mg/kg administered daily via oral gavage measured post 4 weeks of treatment. Type of series: functional, organism-based.

In brackets after ≈: the same amount, converted by molar mass. Activity calls are given as the source filed them. The rule behind the calls is not given here.

These results are taken from ChEMBL document CHEMBL4270652, “Design, synthesis, and biological activity of substituted 2-amino-5-oxo-5H-chromeno[2,3-b]pyridine-3-carboxylic acid derivatives as inhibitors of the inflammatory kinases TBK1 and IKKε for the treatment of obesity” (Bioorg Med Chem, 2018).

In general, solubility (thermodynamic) refers to the concentration in solution at equilibrium with solid.

Description for physchem: Thermodynamic aqueous solubility in PBS of pH 7.4 after overnight incubation by chemiluminescent nitrogen detection

In the case of `CC(C)c1cc2c(=O)c3cc(C(=O)O)c(N)nc3oc2cn1`, the thermodynamic solubility in “physchem” was 77.9 µM (≈ 23.3 µg/mL). In other words, the double-digit micromolar range. For `CC(C)c1cc2c(=O)c3cc(C(=O)O)c(N)nc3oc2cc1F`, the solubility (thermodynamic) in “physchem” is 13.7 µM (≈ 4.33 µg/mL). Still for that read-out and setting: the figure for `CC(C)Cc1ccc2oc3nc(N)c(C(=O)O)cc3c(=O)c2c1` is 179 µM (≈ 55.8 µg/mL); for `CC(C)CCc1ccc2oc3nc(N)c(C(=O)O)cc3c(=O)c2c1` it is 119 µM (≈ 38.8 µg/mL).

For `Nc1nc2oc3ccc(C4CCC(=O)CC4)cc3c(=O)c2cc1C(=O)O`, the solubility (thermodynamic) in the series “physchem” was less than 1.1 µM.

In the case of `Nc1nc2oc3ccc(C4CCSCC4)cc3c(=O)c2cc1C(=O)O`, the solubility (thermodynamic) in “physchem” was 61.3 µM (≈ 21.8 µg/mL).

Consider `CC(C)c1ccc2oc3nc(N)c(C(=O)O)cc3c(=O)c2c1`, for which the outcome in the series on Mus musculus [1], in the series on Mus musculus [2] and in the series on Mus musculus [3] was Active.

For the molecule `CN(C)c1ccc2oc3nc(N)c(C(=O)O)cc3c(=O)c2c1`, in the series “physchem”, the solubility (thermodynamic) came to 76.8 µM (≈ 23 µg/mL).

On to `Nc1nc2oc3ccc(C4CCCCC4)cc3c(=O)c2cc1C(=O)O`, for which the outcome with Mus musculus [1], in the series with Mus musculus [2], in the series with Mus musculus [3] and in the series with Mus musculus [4] was Active. Further, the thermodynamic solubility in the series “physchem” is 94.4 µM (≈ 31.9 µg/mL).

Molecule `CC(C)c1ccc2c(=O)c3cc(C(=O)O)c(N)nc3oc2c1` yielded a thermodynamic solubility in the series “physchem” of 19.1 µM (≈ 5.7 µg/mL). Turning to `CC(=O)N1CCC(c2ccc3oc4nc(N)c(C(=O)O)cc4c(=O)c3c2)CC1`, the solubility (thermodynamic) in “physchem” was 121 µM (≈ 46 µg/mL).

With `CC(C)c1cccc2oc3nc(N)c(C(=O)O)cc3c(=O)c12`, the thermodynamic solubility in “physchem” came to 229 µM (≈ 68.4 µg/mL).
